Data from US20160194274A1, “PHENANTHRENE DERIVATIVES FOR USE AS MEDICAMENTS” (VALENTIA BIOPHARMA, priority 2012, published 2016).

How the values were obtained:
cTNT exon 5 splicing = test: RT-PCR of cTNT splicing event in human myoblasts; assay type: cell-based
Method: FIG. 5. Recovering of DM1 aberrant cTNT splicing event. […] Upper section, right: Recovering was significant at 25 μM.
Additional assays involved: • Reverse Transcription-PCR (RT-PCR) to detect levels of normal/aberrant splicing events in specific genes. This approach was performed in human cells from patients (see FIG. 5) or from DM1 mouse (see FIG. 8 up) (HSA^LR, Mankodi A et al., Science, 289:1769-1773 (2000)) tissues (skeletal muscle), from which total RNA was extracted from ˜0.5-1.5×10^5 cells using the Zygem Tissue Plus kit. Serca 1, Cypher or cTNNT genes reverse transcription were performed and quantification of normal/aberrant spliced band forms was obtained (ImageJ software) after running PCR products in 2% agarose gels. As shown in FIGS. 5 and 8 compounds of the invention are able to recover disease phenotypes. • Drosophila Muscle Histology, where five-day old Drosophila thoraces were embedded in Epon for transversal, semi-thin sectioning. Muscle area was quantified (see FIG. 3) by binarizing images (equal dimensions) and quantifying pixels (%) within muscle tissue with ImageJ software. […] A minimum of 8 flies were analyzed in each case.

GGGGCC FAM-RNA probe = test: Gel retardation assay with FAM-GGGGCC probe (FTD/ALS); assay type: binding
Method: (§1) FIG. 9. VLT002 binding assessment in additional toxic repeats linked to disease through hairpin formation.
(§2) Fluorescence Electrophoretic Mobility Shift Assay to test RNA-compound binding. Briefly, an aliquot of carboxyfluorescein (FAM)-CUG10 RNA (DM1, HDL2, SCA8; see FIG. 6) was heated at 70° C. for 5 min and diluted to 300 nM. The binding reaction with compounds was then carried out as described in (Garcia-Lopez A et al. Proc. Natl. Acad. Sci. USA. 108(29):11866-71 (2011)). The reaction mix was loaded onto 8% polyacrylamide nondenaturing gels, and electrophoresis was conducted at 4° C. in TB 1× for approximately 30 min at 240V, followed by fluorescence visualization. Quantification of the free RNA band intensity was carried out using the ImageJ software. A non-linear regression analysis was used to calculate EC50, based on a total of three experimental replicates. Same approach was developed with (FAM)-CCUG8 (DM2), CAG10 (SCA3), CGG10 (FXTAS), GGGGCC5 (ALS/FSD), UGGAA6 (SCA31) probes (see FIG. 9).

(CUG)23 RNA hairpin = test: 2-Aminopurine fluorescence assay of hairpin RNA unfolding; assay type: biochemical; conditions: for modification of the hairpin loops formed by the CUG repeats (2-AP fluorescence): (CUG)23 RNA, dose-range
Method: FIG. 7. […] Measurements of the fluorescence emitted (Y-axis), measured as relative fluorescence units (RFU), by 2-aminopurine in a (CUG)23 RNA (1 μM) in the presence of different compounds (dose-range approach), relative to the fluorescence emitted by the free RNA. […] These effects were not observed when incubating the RNA with DMSO (not shown), or with the small molecule pentamidine, published as a compound able to disrupt MBNL1 binding to CUG hairpins (Warf M B et al. Proc. Natl. Acad. Sci. USA 106:18551-56 (2009)). * indicates p-value <0.05 ** p-value <0.005 *** p-value p<0.0005.
Aminopurine Fluorescence assay to detect hairpin double strand RNA unfolding. An aliquot of 2-aminopurine (2AP)-CUG23 RNA (1 μM in binding buffer) was heated at 90° C. for 3 min, placed on ice, and further diluted to 30 nM in a final volume of 1 mL in binding buffer.

CAG FAM-RNA probe = test: Gel retardation assay with FAM-CAG probe (SCA3); assay type: binding
Method: as §1, §2

FAM-CUU probe = test: Gel retardation assay with FAM-CUU probe (negative control); assay type: binding
[1] = tested on: ribonuclear foci in MyoD transformed fibroblasts derived from DM1 patients (>300 CTG repeats); test: FISH detection of aberrant ribonuclear foci in human DM1 fibroblasts; assay type: cell-based; conditions: 24 h treatment, vs no treatment
Method: FIG. 1. Quantification of aberrant ribonuclear foci (DM1 disease hallmark) in human DM1 fibroblasts. Treatments with the compounds of Formula I were performed (VLT002, VLT015, VLT025, VLT024, VLT042, VLT040, VLT023, VLT026, VLT048, VLT045, VLT043, VLT049, VLT051 VLT053 and VLT056). (A) Number (medium) of foci/nuclei (No treatment vs. compound treatment). (B) Number of cells without foci (No treatment vs. compound treatment). n=100 minimum number of cells counted. T-Student test: * indicates p-value <0.05 ** p-value p<0.005 *** p-value p<0.0005.
After screening identification of the compounds of the invention (see FIG. 10), main validation was done using Fluorescence In Situ Hybridization (FISH) detection of aberrant aggregation of ribonuclear foci in cell lines from DM1 patients (see FIG. 1) and in DM1 Drosophila model (see FIG. 2) (Garcia-Lopez et al., Proc. Natl. Acad. Sci. USA. 108(29):11866-71 (2011)). Briefly, regarding human cells, it was used MyoD transformed fibroblasts derived from clinically diagnosed DM1 patients (>300 CTG repeats) routinely growing in DMEM supplemented with 10% heat-inactivated fetal bovine serum and maintained at 37° C. in a humidified incubator containing 5% CO2. To detect ribonuclear foci, cells were cultured over cover-slides in flat bottomed 24-well plates, after 24 h compounds of the invention were added to the cells at desiderate concentration, 24 h later in situ hybridization was done by fixing with 4% paraformaldehyde (PFA) 15 min at room temperature, and washed and stored in 70% ethanol. Cells were rehydrated with PBS and pre-hybridized 10 min at room temperature with a pre-hybridization buffer (formamide 30%, 2× saline-sodium citrate buffer (SSC)). Hybridization was performed in a light-proof wet chamber using the same pre-hybridization buffer supplemented with 0.02% bovine serum albumin (BSA), 1 mg/ml yeast tRNA (Sigma), 2 mM sodium (meta)vanadate, 1 mg/ml sperm DNA, 10% dextran sulfate and 1 ng/μl RNase free HPCL-purified Cy3-labeled (CAG)10 RNA. After hybridization cells were washed 2×15 minutes at 45° C. with the pre-hybridization buffer and washed with 1×PBS at room temperature. Slides were mounted with Vectashield solution with DAPI and number of foci by cell and number of cells with/without foci (see FIG. 1) were counted in a minimum of 100 cells for each treatment and concentration tested with a 63× objective in a Leica microscope. Same FISH approach was performed in Drosophila DM1 flies, where thoraces were embedded in OCT and transversal sections were taken with a Leica CM 15105 cryomicrotome. Sections were processed for in situ hybridization and counting for number of foci by cell with the same Cy3-labeled (CAG)10 probe (see FIG. 2).

CN(C)CCc1cc2c(c3c1ccc1ccccc13)OCO2 [VLT002, Stephenanthrine]
recovering of normal cTNT splicing (ex5 exclusion) (cTNT exon 5 splicing; DM1 myoblasts, 25 μM): partial recovering
expression of housekeeping gene (GAPDH) (cTNT exon 5 splicing; human myoblasts): No expression changes
levels of cTNT exon 5 exclusion in no DM1 cells (cTNT exon 5 splicing; no DM1 human myoblasts, dose-response): no changes
binding to GGGGCC (FTD/ALS) probe (GGGGCC FAM-RNA probe): caused retention of the complex in the well
modification of the hairpin loops formed by the CUG repeats (2-AP fluorescence) ((CUG)23 RNA hairpin): modify the hairpin loops
binding to CAG (SCA3) probe (CAG FAM-RNA probe): caused retention of the complex in the well
binding to FAM-CUU probe (FAM-CUU probe): did not bind
aberrant ribonuclear foci: number of foci/nuclei (A) and/or number of cells without foci (B) [1]: significant reduction

C[N+](C)(C)CCc1cc2c(c3c1ccc1ccccc13)OCO2 [VLT025]
modification of the hairpin loops formed by the CUG repeats (2-AP fluorescence) ((CUG)23 RNA hairpin): modify the hairpin loops
decreases in the fluorescence of 2-AP ((CUG)23 RNA hairpin; change to more structured double-stranded): noteworthy decreases
aberrant ribonuclear foci: number of foci/nuclei (A) and/or number of cells without foci (B) [1]: significant reduction
